The values below are quoted from earlier work in US20040219200A1, “Topical patch preparation containing a delayed-type hypersensitivity inducer and methods for using the same” (priority 2001, published 2004).

The conditions of the data set: research conducted in the 1950s in the US.

On to `O=[N+]([O-])c1ccc(Cl)c([N+](=O)[O-])c1` [DNCB, 1-chloro-2,4-dinitrobenzene], for which the Carcinogenicity result is recorded as “not carcinogenic”.
